pIC50: −log10 of the molar value.
Biological target: T1, Dihydroorotate dehydrogenase (quinone), mitochondrial [30-395] (Homo sapiens, UniProt Q02127)
T1 construct: 30-395
Assay: DHODH Inhibition Assay
Conditions: pH 8; 25 °C
Protocol: The assays were carried out by using a colorimetric DCIP method, which uses the colorimetric reagent 2, 6-dichlorophenolindophenol as the final electron acceptor. DCIP reduction is stoichiometrically equivalent to oxidation of dihydroorotate. Changes in absorbance were quantified in triplicate on a plate reader and data were analyzed to measure the reduction of DCIP as a decrease in absorbance at 610 nm. […] Each data point was recorded in triplicates on a single measurement day.

T1 sequence (Q02127 30-395): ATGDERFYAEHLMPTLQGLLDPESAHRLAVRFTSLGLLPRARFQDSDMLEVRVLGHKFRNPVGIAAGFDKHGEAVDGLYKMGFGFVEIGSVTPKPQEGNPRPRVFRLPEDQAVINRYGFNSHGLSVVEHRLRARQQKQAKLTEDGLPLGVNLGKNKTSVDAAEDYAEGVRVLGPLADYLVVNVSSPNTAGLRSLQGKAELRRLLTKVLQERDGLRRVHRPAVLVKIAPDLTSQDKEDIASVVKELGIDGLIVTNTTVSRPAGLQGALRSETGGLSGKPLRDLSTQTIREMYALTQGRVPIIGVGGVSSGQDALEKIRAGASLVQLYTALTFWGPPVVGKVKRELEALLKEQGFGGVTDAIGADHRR

For `O=C(O)c1cscc1C(=O)Nc1c(F)cc(-c2cccc(OC(F)(F)F)c2)cc1F` [4-({2,6-difluoro-4-[3-(trifluoromethoxy)phenyl]phenyl}carbamoyl)thiophene-3-carboxylic acid], the pIC50 was 8.00.

Reference: BindingDB's records for doi:10.1016/j.bmcl.2005.10.011 (4Sc, 2006)
